Test results: US7696246B2 (Ligand Pharmaceuticals Incorporated, priority 1999, dated 2010)
Where two headings read alike, the source gives them in different places.

Legend:
PR [1] = target: T1, PR (Homo sapiens, UniProt P06401); assay: Co-transfection assay, PR antagonist activity (CV-1 cells, in presence of progesterone); type: cell-based; parameters: expressed in transfected cells; host or cells: CV-1 cells; conditions: for PR Antagonist CV-1 Cells Efficacy (%): percent maximal inhibition, progesterone at its EC50
T1 sequence (P06401 1-933): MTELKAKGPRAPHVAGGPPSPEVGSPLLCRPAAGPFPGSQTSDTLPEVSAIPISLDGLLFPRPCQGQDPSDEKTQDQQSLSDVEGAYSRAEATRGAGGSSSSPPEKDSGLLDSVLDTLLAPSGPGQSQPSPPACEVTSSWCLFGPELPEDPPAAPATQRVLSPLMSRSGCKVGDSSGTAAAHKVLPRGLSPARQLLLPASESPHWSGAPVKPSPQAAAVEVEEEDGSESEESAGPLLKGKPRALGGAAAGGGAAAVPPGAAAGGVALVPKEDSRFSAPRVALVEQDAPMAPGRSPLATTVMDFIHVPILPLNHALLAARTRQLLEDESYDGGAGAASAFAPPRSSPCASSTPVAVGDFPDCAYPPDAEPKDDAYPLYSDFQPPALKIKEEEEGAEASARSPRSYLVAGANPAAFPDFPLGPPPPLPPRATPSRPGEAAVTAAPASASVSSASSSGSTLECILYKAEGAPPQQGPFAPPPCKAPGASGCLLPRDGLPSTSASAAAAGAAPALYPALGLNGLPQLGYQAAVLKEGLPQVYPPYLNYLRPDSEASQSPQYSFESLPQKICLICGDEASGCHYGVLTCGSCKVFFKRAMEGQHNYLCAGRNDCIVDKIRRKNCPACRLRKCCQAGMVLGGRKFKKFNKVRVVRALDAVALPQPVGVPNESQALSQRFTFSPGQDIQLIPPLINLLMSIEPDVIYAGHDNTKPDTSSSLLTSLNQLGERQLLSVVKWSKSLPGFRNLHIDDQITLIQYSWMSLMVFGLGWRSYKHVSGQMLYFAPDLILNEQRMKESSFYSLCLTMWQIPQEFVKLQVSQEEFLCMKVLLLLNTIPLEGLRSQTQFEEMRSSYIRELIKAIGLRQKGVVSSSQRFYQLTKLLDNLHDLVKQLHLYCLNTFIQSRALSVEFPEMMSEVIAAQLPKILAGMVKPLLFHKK

PR [2] = target: T1, PR; assay: PR competitive binding assay; conditions: Cheng-Prusoff
Experimental: (§1) After correcting for non-specific binding, IC50 values were determined. […] The IC50 value was determined graphically from a log-logit plot of the data. The Ki values were determined by application of the Cheng-Prusoff equivuation to the IC50 values, the labeled ligand concentration and the Kd of the labeled ligand.

PR [3] = target: T1, PR; assay: Co-transfection assay, PR agonist activity (CV-1 cells); type: cell-based; parameters: expressed in transfected cells; host or cells: CV-1 cells; conditions: for EC50: agonist potency EC50; for PR Agonist CV-1 Cells Efficacy (%): percent maximal response relative to reference agonist progesterone
human AR [4] = target: T2, human AR (Homo sapiens, UniProt P10275); assay: AR whole cell competitive binding assay (COS-1 cells, 3H-DHT); conditions: 1 nM 3H-DHT, Cheng-Prusoff
T2 sequence (P10275 1-920): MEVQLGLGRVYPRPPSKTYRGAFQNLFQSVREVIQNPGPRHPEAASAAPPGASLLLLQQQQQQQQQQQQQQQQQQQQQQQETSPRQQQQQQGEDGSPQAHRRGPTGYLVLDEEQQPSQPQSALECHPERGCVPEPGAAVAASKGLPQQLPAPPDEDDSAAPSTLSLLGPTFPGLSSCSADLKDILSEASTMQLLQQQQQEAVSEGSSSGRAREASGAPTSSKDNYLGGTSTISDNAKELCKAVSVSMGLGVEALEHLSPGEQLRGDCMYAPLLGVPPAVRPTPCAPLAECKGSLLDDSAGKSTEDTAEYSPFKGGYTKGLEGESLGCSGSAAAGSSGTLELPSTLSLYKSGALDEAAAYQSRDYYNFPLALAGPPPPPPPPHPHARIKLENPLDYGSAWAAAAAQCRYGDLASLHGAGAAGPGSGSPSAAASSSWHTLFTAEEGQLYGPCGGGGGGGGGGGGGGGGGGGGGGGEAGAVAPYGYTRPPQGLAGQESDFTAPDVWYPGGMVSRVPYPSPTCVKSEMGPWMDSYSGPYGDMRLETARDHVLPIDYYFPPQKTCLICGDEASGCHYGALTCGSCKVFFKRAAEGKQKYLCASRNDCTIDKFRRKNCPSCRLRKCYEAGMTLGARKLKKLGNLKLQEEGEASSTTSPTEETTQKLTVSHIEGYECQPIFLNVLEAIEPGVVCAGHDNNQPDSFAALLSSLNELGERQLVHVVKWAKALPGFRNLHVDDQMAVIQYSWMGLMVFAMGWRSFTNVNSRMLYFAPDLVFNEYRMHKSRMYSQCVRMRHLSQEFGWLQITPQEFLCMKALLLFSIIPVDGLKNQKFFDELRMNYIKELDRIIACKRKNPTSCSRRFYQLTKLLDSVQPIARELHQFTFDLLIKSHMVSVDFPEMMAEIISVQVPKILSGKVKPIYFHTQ
Experimental: AR Binding: For the whole cell binding assay, COS-1 cells in 96-well microtiter plates containing DMEM-10% FBS were transfected as described above with the following plasmid DNA: pRShAR (2 ng/well), pRS-β-Gal (50 ng/well) and pGEM (48 ngcwell). Six hours after transfection, media was removed, the cells were washed with PBS and fresh media was added. The next day, the media was changed to DMEM-serum free to remove any endogenous ligand that might be complexed with the receptor in the cells.
Three replicates were used for each sample. […] The remaining media was removed, the cells were washed three times with PBS to remove unbound ligand, and cells were lysed with a Triton X-100-based buffer.
For the saturation analyses, the difference between the total binding and the nonspecific binding, normalized by the β-Gal rate, was defined as specific binding. […] The Ki values were determined by application of the Cheng-Prusoff equation to the IC50 values, where:
as §1

human AR [5] = target: T2, human AR; assay: Co-transfection assay, AR antagonist activity (CV-1 cells, in presence of DHT); type: cell-based; conditions: for AR Antagonist CV-1 Cells Efficacy (%): percent maximal inhibition, DHT at its EC50; for IC50: read-out: AR Antagonist CV-1 Cells Potency
human AR [6] = target: T2, human AR; assay: Co-transfection assay, AR agonist activity (CV-1 cells, MTV-LUC reporter); type: cell-based; conditions: CV-1 cells; for EC50: agonist potency EC50
[7] = read-out: PR Antagonist CV-1 Cells Potency

## CCCC(C)N(CCC)c1ccc2[nH]c(=O)cc(C(F)(F)F)c2c1 (racemic) [Compound 251, (±)-6-(N-Propyl-N-1-methylbutyl)amino-4-trifluoromethyl-2(1H)-quinolinone]
PR [1]
  IC50: 747 nM
  PR Antagonist CV-1 Cells Efficacy (%): 91%
PR [2]
  Ki: 930 nM
PR [3]
  EC50: > 10000 nM
  PR Agonist CV-1 Cells Efficacy (%): na (na = not active (i.e. efficacy of <20 and potency of >10,000))

## CC1(C)OC(=S)Nc2ccc(C3=CC(O)CCC3)cc21 (racemic) [Compound 697, (±)-6-(3-Hydroxy-1-)cyclohexenyl-1,4-dihydro-4,4-dimethyl-1,3-benzo[d]oxazin-2-thione]
PR [1]
  PR Antagonist CV-1 Cells Efficacy (%): 58%
PR [1]; [7]
  IC50: 316 nM
PR [2]
  Ki: > 1000 nM
PR [3]
  EC50: > 10000 nM
  PR Agonist CV-1 Cells Efficacy (%): na (na = not active (i.e. efficacy of <20 and potency of >10,000))

## CC(C)CN(CC(F)(F)F)c1cc2c(C(F)(F)F)cc(=O)[nH]c2cc1O [Compound 473, 6-(N-Isobutyl-N-2,2,2-trifluoroethyl)amino-7-hydroxy-4-trifluoromethyl-2(1H)-quinolinone]
PR [1]
  IC50: 880 nM
  PR Antagonist CV-1 Cells Efficacy (%): 55%
PR [2]
  Ki: 508 nM
PR [3]
  EC50: > 10000 nM
  PR Agonist CV-1 Cells Efficacy (%): na (na = not active (i.e. efficacy of <20 and potency of >10,000))

## FC(F)(F)c1cc(=S)[nH]c2ccc(C3CCCCC3)cc12 [Compound 631, 6-Cyclohexyl-4-trifluoromethyl-2(1H)-thioquinolinone]
PR [1]
  IC50: 796 nM
  PR Antagonist CV-1 Cells Efficacy (%): 75%
PR [2]
  Ki: 136 nM
PR [3]
  EC50: > 10000 nM
  PR Agonist CV-1 Cells Efficacy (%): na (na = not active (i.e. efficacy of <20 and potency of >10,000))

## CCC(CC)c1ccc2[nH]c(=O)cc(C(F)(F)F)c2c1 [Compound 647, 6-(1-Ethylpropyl)-4-trifluoromethyl-2(1H)-quinolinone]
Human AR [4]
  Ki: 81 nM
Human AR [5]
  AR Antagonist CV-1 Cells Efficacy (%): 64%
  IC50: 31 nM
Human AR [6]
  EC50: 233 nM
Human AR [6]; percent maximal response relative to reference agonist DHT
  AR Agonist CV-1 Cells Efficacy (%): 42%

## O=C1C=C(c2ccc3[nH]c(=O)cc(C(F)(F)F)c3c2)CCC1 [Compound 655, 6-(3-Oxo-1-)cyclohexenyl-4-trifluoromethyl-2(1H)-quinolinone]
Human AR [4]
  Ki: > 1000 nM
Human AR [5]
  AR Antagonist CV-1 Cells Efficacy (%): 70%
  IC50: 70 nM
Human AR [6]
  EC50: > 10000 nM

## O=c1cc(C(F)(F)F)c2cc(C(O)(c3ccccc3)c3ccccc3)ccc2[nH]1 [Compound 659, 6-(1-Hydroxy-1,1-diphenyl)methyl-4-trifluoromethyl-2(1H)-quinolinone]
Human AR [4]
  Ki: 40 nM
Human AR [5]
  AR Antagonist CV-1 Cells Efficacy (%): 70%
  IC50: 44 nM
Human AR [6]
  EC50: > 10000 nM

## CC1(C)OC(=O)Nc2ccc(C3CCCCCC3)cc21 [Compound 671, 6-(1-Cycloheptyl)-1,4-dihydro-4,4-dimethyl-1,3-benzo[d]oxazin-2-one]
PR [1]
  PR Antagonist CV-1 Cells Efficacy (%): 62%
PR [1]; [7]
  IC50: 200 nM
PR [2]
  Ki: > 1000 nM
PR [3]
  EC50: > 10000 nM
  PR Agonist CV-1 Cells Efficacy (%): na (na = not active (i.e. efficacy of <20 and potency of >10,000))

## CC1(C)OC(=S)Nc2ccc(C3=CC(=O)CCC3)cc21 [Compound 695, 6-(3-Oxo-1-)cyclohexenyl-1,4-dihydro-4,4-dimethyl-1,3-benzo[d]oxazin-2-thione]
PR [1]
  PR Antagonist CV-1 Cells Efficacy (%): 90%
PR [1]; [7]
  IC50: 20 nM
PR [2]
  Ki: 203 nM
PR [3]
  EC50: > 10000 nM
  PR Agonist CV-1 Cells Efficacy (%): na (na = not active (i.e. efficacy of <20 and potency of >10,000))

## CC(C)c1ccc2c(c1)CN(C)C(=O)N2 [Compound 721, 3,4-Dihydro-6-isopropyl-3-methyl-2(1H)-quinazolinone]
Human AR [4]
  Ki: > 1000 nM
Human AR [5]
  AR Antagonist CV-1 Cells Efficacy (%): 85%
  IC50: 32 nM
Human AR [6]
  EC50: > 10000 nM

## O=c1cc(C(F)(F)F)c2cc(-c3cccc([N+](=O)[O-])c3)ccc2[nH]1 [Compound 727, 4-Trifluoromethyl-6-(3-nitro)phenyl-2(1H)-quinolinone]
PR [1]
  IC50: 108 nM
  PR Antagonist CV-1 Cells Efficacy (%): 90%
PR [2]
  Ki: 161 nM
PR [3]
  EC50: > 10000 nM
  PR Agonist CV-1 Cells Efficacy (%): na (na = not active (i.e. efficacy of <20 and potency of >10,000))

## N#Cc1cc(F)cc(-c2ccc3[nH]c(=O)cc(C(F)(F)F)c3c2)c1 [Compound 731, 4-Trifluoromethyl-6-(3-fluoro-5-cyano)phenyl-2(1H)-quinolinone]
PR [1]
  IC50: 64 nM
  PR Antagonist CV-1 Cells Efficacy (%): 89%
PR [2]
  Ki: 154 nM
PR [3]
  EC50: > 10000 nM
  PR Agonist CV-1 Cells Efficacy (%): na (na = not active (i.e. efficacy of <20 and potency of >10,000))

## Cc1cccc(-c2ccc3[nH]c(=O)cc(C(F)(F)F)c3c2)c1 [Compound 738, 4-Trifluoromethyl-6-(3-methylphenyl)-2(1H)-quinolinone]
Human AR [4]
  Ki: > 1000 nM
Human AR [5]
  AR Antagonist CV-1 Cells Efficacy (%): 91%
  IC50: 27 nM
Human AR [6]
  EC50: > 10000 nM

## O=c1cc(C(F)(F)F)c2cc(-c3cccc(F)c3)ccc2[nH]1 [Compound 741, 4-Trifluoromethyl-6-(3-fluorophenyl)-2(1H)-quinolinone]
Human AR [4]
  Ki: 322 nM
Human AR [5]
  AR Antagonist CV-1 Cells Efficacy (%): 92%
  IC50: 27 nM
Human AR [6]
  EC50: > 10000 nM

## O=c1cc(C(F)(F)F)c2cc(-c3ccc(Cl)cc3Cl)ccc2[nH]1 [Compound 753, 4-Trifluoromethyl-6-(2,4-dichlorophenyl)-2(1H)-quinolinone]
Human AR [4]
  Ki: 74 nM
Human AR [5]
  AR Antagonist CV-1 Cells Efficacy (%): 76%
  IC50: 51 nM
Human AR [6]
  EC50: > 10000 nM

## COc1cccc(-c2ccc3[nH]c(=O)cc(C)c3c2)c1 [Compound 758, 4-Methyl-6-(3-methoxyphenyl)-2(1H)-quinolinone]
Human AR [4]
  Ki: 3.6 nM
Human AR [5]
  AR Antagonist CV-1 Cells Efficacy (%): 94%
  IC50: 87 nM
Human AR [6]
  EC50: > 10000 nM

## O=c1cc(C(F)(F)F)c2cc(-c3ccccc3)ccc2[nH]1 [Compound 764, 4-Trifluoromethyl-6-phenyl-2(1H)-quinolinone]
Human AR [4]
  Ki: 16 nM
Human AR [5]
  AR Antagonist CV-1 Cells Efficacy (%): 87%
  IC50: 30 nM
Human AR [6]
  EC50: > 10000 nM

## CC(=O)[C@H]1CC[C@H]2[C@@H]3CCC4=CC(=O)CC[C@]4(C)[C@H]3CC[C@]12C [Prog, progesterone, reference compound]
PR [1]
  PR Antagonist CV-1 Cells Efficacy (%): na (na = not active (i.e. efficacy of <20 and potency of >10,000))
PR [3]
  PR Agonist CV-1 Cells Efficacy (%): 100%

## CN(C)c1ccc([C@H]2C[C@]3(C)[C@@H](CC[C@]3(O)CCCO)[C@@H]3CCC4=CC(=O)CCC4=C32)cc1 [ZK299, reference compound]
PR [1]
  PR Antagonist CV-1 Cells Efficacy (%): 95%
PR [3]
  PR Agonist CV-1 Cells Efficacy (%): na (na = not active (i.e. efficacy of <20 and potency of >10,000))
